Values of other authors, collected in patent publication US20230175054A1, “LASH METHODS FOR SINGLE MOLECULE SEQUENCING & TARGET NUCLEIC ACID DETECTION” (SARMAL, INC., priority 2020, published 2023).

Columns and labels:
Renilla Luciferase = molecular target: T1, Renilla Luciferase (Renilla reniformis, UniProt P27652); settings: for λem (nm): luminescence emission with Renilla Luciferase; for Initial Intensity (%) / Total Light (%): with Renilla Luciferase
T1 sequence (P27652 1-311): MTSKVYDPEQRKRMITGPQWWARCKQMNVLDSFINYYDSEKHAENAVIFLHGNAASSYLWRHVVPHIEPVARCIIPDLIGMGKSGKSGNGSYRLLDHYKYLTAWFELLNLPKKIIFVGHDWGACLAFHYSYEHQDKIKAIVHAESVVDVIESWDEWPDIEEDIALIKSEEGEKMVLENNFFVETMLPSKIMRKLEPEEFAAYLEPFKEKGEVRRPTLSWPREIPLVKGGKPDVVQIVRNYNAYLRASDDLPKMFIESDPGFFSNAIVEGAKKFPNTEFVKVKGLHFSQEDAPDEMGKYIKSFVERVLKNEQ

Apoaequorin = molecular target: T2, Apoaequorin (Aequorea victoria, UniProt P02592); settings: for λem (nm): luminescence emission with Apoaequorin; for Half-rise time / Relative intensity / Relative luminescence capacity: with Apoaequorin
T2 sequence (P02592 8-196): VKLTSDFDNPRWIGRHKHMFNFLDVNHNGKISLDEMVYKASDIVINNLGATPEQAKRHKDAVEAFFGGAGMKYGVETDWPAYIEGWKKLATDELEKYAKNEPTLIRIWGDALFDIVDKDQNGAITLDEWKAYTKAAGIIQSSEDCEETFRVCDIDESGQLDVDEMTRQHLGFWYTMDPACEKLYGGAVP

Compound	λem (nm) (Renilla Luciferase)	Initial Intensity (%) (Renilla Luciferase)	Total Light (%) (Renilla Luciferase)	λem (nm) (Apoaequorin)	Half-rise time (Apoaequorin) [s]	Relative intensity (Apoaequorin)	Relative luminescence capacity (Apoaequorin)
Oc1ccc(Cc2nc3c(CC4CCCC4)nc(-c4ccc(O)cc4)cn3c2O)cc1 [Cp, Coelenterazine cp]	470	135	23	442	0.15 to 0.3	15	0.95
Oc1ccc(Cc2nc3c(Cc4ccccc4)nc(-c4ccc(O)cc4)cn3c2O)cc1 [Native, Coelenterazine]				465	0.4 to 0.8	1.00	1.0
Oc1ccc(-c2cn3c(O)c(Cc4ccc(F)cc4)nc3c(CC3CCCC3)n2)cc1 [fcp, Coelenterazine fcp]				452	0.4 to 0.8	135	0.57
Oc1ccc(-c2cn3c(O)c(Cc4ccccc4)nc3c(CC3CCCC3)n2)cc1 [hcp, Coelenterazine hcp]				444		190	0.67
O=c1c(Cc2ccc(I)cc2)nc2c(Cc3ccccc3)[nH]c(-c3ccc(O)cc3)cn1-2 [i, Coelenterazine i]				476	8	0.03	0.70
Coelenterazine f	473	45	28	473	0.4 to 0.8	18	0.80
Coelenterazine h				475	0.4 to 0.8	10	0.82
Coelenterazine ip				441	1	47	0.54
Coelenterazine n				467	5	0.01	0.26
